# Data: ChEMBL document CHEMBL2331296, “Synthesis of tetrahydroxybiphenyls and tetrahydroxyterphenyls and their evaluation as amyloid-β aggregation inhibitors” (Bioorg Med Chem Lett, 2013)
# Active and inactive are the calls of the source. The calls are words filed in the database; no cut-off is given here.
# Experiments:
# [1] = target: T1, Amyloid-beta precursor protein (Homo sapiens, UniProt P05067); experiment: Inhibition of amyloid-beta40 (unknown origin) aggregation at 250 uM by congo red spectral-shift assay
# [2] = target: T1, Amyloid-beta precursor protein; experiment: Inhibition of amyloid-beta40 (unknown origin) aggregation by congo red spectral-shift assay
# [3] = target: T1, Amyloid-beta precursor protein; experiment: Displacement of congo red from amyloid-beta40 (unknown origin) assessed as reduction of congo red-amyloid beta40 complex level; parameters: scale not given: the % may be the effect or the level left
# T1 sequence (P05067 whole entry): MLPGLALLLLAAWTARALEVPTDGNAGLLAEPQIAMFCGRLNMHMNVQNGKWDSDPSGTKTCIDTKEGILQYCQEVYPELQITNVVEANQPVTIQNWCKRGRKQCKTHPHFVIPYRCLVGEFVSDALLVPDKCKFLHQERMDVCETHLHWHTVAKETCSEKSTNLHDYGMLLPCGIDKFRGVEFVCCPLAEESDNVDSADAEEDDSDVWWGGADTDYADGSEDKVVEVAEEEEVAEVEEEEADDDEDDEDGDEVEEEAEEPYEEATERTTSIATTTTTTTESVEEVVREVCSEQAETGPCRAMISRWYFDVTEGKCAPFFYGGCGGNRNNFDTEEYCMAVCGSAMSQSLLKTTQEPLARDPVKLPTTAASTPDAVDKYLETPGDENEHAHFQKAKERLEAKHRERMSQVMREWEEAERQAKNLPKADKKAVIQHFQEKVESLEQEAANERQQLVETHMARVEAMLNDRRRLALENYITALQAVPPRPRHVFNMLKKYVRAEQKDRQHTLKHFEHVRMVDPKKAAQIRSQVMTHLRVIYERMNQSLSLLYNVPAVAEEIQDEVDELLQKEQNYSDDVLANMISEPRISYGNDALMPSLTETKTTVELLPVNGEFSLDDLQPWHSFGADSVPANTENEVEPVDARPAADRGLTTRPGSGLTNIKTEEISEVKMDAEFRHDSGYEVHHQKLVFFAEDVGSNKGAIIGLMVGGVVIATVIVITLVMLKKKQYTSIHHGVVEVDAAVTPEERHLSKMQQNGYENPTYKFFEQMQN
Activity [1],IC50 [2],Activity [3],SMILES
Active,–,–,Oc1ccc(-c2ccc(-c3ccc(O)c(O)c3)cc2)cc1O
–,25 µM,2.6%,Oc1ccc(-c2ccc(O)c(O)c2)cc1O
inactive,67.5 µM,2.6%,Oc1ccc(-c2ccccc2-c2ccc(O)c(O)c2)cc1O
inactive,92.5 µM,2.6%,Oc1ccc(-c2cccc(-c3ccc(O)c(O)c3)c2)cc1O
